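The compound was tested at five concentrations on cells cultured in 96-well plates, with a 48-hour exposure period. GI50 marks 50% less growth.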 Activity calls are given as the source filed them. No stated cut-off is given here; in the data, active = GI50 up to about 1.1 µM and inactive = higher.
Experiments:
Test in all cases: NCI anticancer screen, dose series, 48 h
NCI-H460 = tested on: NCI-H460
U-251 = tested on: U-251
IGROV-1 = tested on: IGROV-1
OVCAR-8 = tested on: OVCAR-8
SF-295 = tested on: SF-295
HOP-92 = tested on: HOP-92
CCRF-CEM = tested on: CCRF-CEM
HT-29 = tested on: HT-29
SNB-78 = tested on: SNB-78
OVCAR-5 = tested on: OVCAR-5
M19-MEL = tested on: M19-MEL
NCI-H226 = tested on: NCI-H226
CAKI-1 = tested on: CAKI-1
NCI-H522 = tested on: NCI-H522
HOP-62 = tested on: HOP-62
OVCAR-4 = tested on: OVCAR-4
KM12 = tested on: KM12
HOP-18 = tested on: HOP-18
DMS-114 = tested on: DMS-114
M14 = tested on: M14
TK-10 = tested on: TK-10
ACHN = tested on: ACHN
DLD-1 = tested on: DLD-1
UACC-257 = tested on: UACC-257
Malme-3M = tested on: Malme-3M
UACC-62 = tested on: UACC-62
RPMI-8226 = tested on: RPMI-8226
K562 = tested on: K562
SK-MEL-28 = tested on: SK-MEL-28
RXF 393 = tested on: RXF 393
DMS-273 = tested on: DMS-273
HL-60 = tested on: HL-60
786-0 = tested on: 786-0
NCI-H23 = tested on: NCI-H23
HCC 2998 = tested on: HCC 2998
UO-31 = tested on: UO-31
KM-20L2 = tested on: KM-20L2
XF498 = tested on: XF498
RXF 631 = tested on: RXF 631
SNB-75 = tested on: SNB-75
SK-MEL-5 = tested on: SK-MEL-5
SF-539 = tested on: SF-539
EKVX = tested on: EKVX
SN12C = tested on: SN12C
SW-620 = tested on: SW-620
A549 = tested on: A549
SNB-19 = tested on: SNB-19
HCT-15 = tested on: HCT-15
LXFL 529 = tested on: LXFL 529
COLO 205 = tested on: COLO 205
SK-MEL-2 = tested on: SK-MEL-2
MOLT-4 = tested on: MOLT-4
SR = tested on: SR
OVCAR-3 = tested on: OVCAR-3
SK-OV-3 = tested on: SK-OV-3
LOX IMVI = tested on: LOX IMVI
HCT-116 = tested on: HCT-116
SF-268 = tested on: SF-268
A498 = tested on: A498

CCCCCCCCCCCCCP(=O)(OC)OC
GI50 (NCI-H460): 17.1 µM (inactive) | GI50 (U-251): 18.5 µM (inactive) | GI50 (IGROV-1): 19.3 µM (inactive) | GI50 (OVCAR-8): 17 µM (inactive) | GI50 (SF-295): 21.5 µM (inactive) | GI50 (HOP-92): 16.9 µM (inactive) | GI50 (CCRF-CEM): 20.8 µM (inactive) | GI50 (HT-29): 18.4 µM (inactive) | GI50 (SNB-78): 17.5 µM (inactive) | GI50 (OVCAR-5): 16.5 µM (inactive) | GI50 (M19-MEL): 19.3 µM (inactive) | GI50 (NCI-H226): 19.2 µM (inactive) | GI50 (CAKI-1): 18 µM (inactive) | GI50 (NCI-H522): 13.6 µM (inactive) | GI50 (HOP-62): 14.9 µM (inactive) | GI50 (OVCAR-4): 19.8 µM (inactive) | GI50 (KM12): 17.5 µM (inactive) | GI50 (HOP-18): 18.1 µM (inactive) | GI50 (DMS-114): 21.6 µM (inactive) | GI50 (M14): 19.9 µM (inactive) | GI50 (TK-10): 17.8 µM (inactive) | GI50 (ACHN): 18.5 µM (inactive) | GI50 (DLD-1): 16.1 µM (inactive) | GI50 (UACC-257): 19.4 µM (inactive) | GI50 (Malme-3M): 22.5 µM (inactive) | GI50 (UACC-62): 17.9 µM (inactive) | GI50 (RPMI-8226): 24.3 µM (inactive) | GI50 (K562): 23.2 µM (inactive) | GI50 (SK-MEL-28): 24.3 µM (inactive) | GI50 (RXF 393): 31.8 µM (inactive) | GI50 (DMS-273): 19.1 µM (inactive) | GI50 (HL-60): 15.6 µM (inactive) | GI50 (786-0): 19.5 µM (inactive) | GI50 (NCI-H23): 18.7 µM (inactive) | GI50 (HCC 2998): 21.5 µM (inactive) | GI50 (UO-31): 16.3 µM (inactive) | GI50 (KM-20L2): 26.8 µM (inactive) | GI50 (XF498): 17.9 µM (inactive) | GI50 (RXF 631): 17.7 µM (inactive) | GI50 (SNB-75): 21.2 µM (inactive) | GI50 (SK-MEL-5): 18.6 µM (inactive) | GI50 (SF-539): 17 µM (inactive) | GI50 (EKVX): 19.4 µM (inactive) | GI50 (SN12C): 20.2 µM (inactive) | GI50 (SW-620): 17.7 µM (inactive) | GI50 (A549): 21.2 µM (inactive) | GI50 (SNB-19): 20.8 µM (inactive) | GI50 (HCT-15): 17.7 µM | GI50 (LXFL 529): 19.1 µM (inactive) | GI50 (COLO 205): 20 µM (inactive) | GI50 (SK-MEL-2): 17.5 µM (inactive) | GI50 (MOLT-4): 19.1 µM (inactive) | GI50 (SR): 19 µM (inactive) | GI50 (OVCAR-3): 20.2 µM (inactive) | GI50 (SK-OV-3): 19 µM (inactive) | GI50 (LOX IMVI): 19.3 µM (inactive) | GI50 (HCT-116): 19.6 µM (inactive)

COC(=O)C1=CC2C(=O)OC1C1C(=O)NC(=O)C21 (configuration not stated)
GI50 (NCI-H460): > 100 µM (inactive) | GI50 (U-251): > 100 µM (inactive) | GI50 (IGROV-1): > 100 µM (inactive) | GI50 (OVCAR-8): > 100 µM (inactive) | GI50 (SF-295): > 100 µM (inactive) | GI50 (HOP-92): > 100 µM (inactive) | GI50 (CCRF-CEM): > 100 µM (inactive) | GI50 (HT-29): > 100 µM (inactive) | GI50 (SNB-78): > 100 µM (inactive) | GI50 (M19-MEL): > 100 µM (inactive) | GI50 (CAKI-1): > 100 µM (inactive) | GI50 (NCI-H522): > 100 µM (inactive) | GI50 (SF-268): > 100 µM (inactive) | GI50 (HOP-62): > 100 µM (inactive) | GI50 (OVCAR-4): 60.4 µM (inactive) | GI50 (KM12): > 100 µM (inactive) | GI50 (HOP-18): > 100 µM (inactive) | GI50 (DMS-114): > 100 µM (inactive) | GI50 (M14): > 100 µM (inactive) | GI50 (TK-10): > 100 µM (inactive) | GI50 (ACHN): > 100 µM (inactive) | GI50 (DLD-1): > 100 µM (inactive) | GI50 (UACC-257): > 100 µM (inactive) | GI50 (Malme-3M): > 100 µM (inactive) | GI50 (UACC-62): > 100 µM (inactive) | GI50 (RPMI-8226): > 100 µM (inactive) | GI50 (K562): > 100 µM (inactive) | GI50 (SK-MEL-28): > 100 µM (inactive) | GI50 (DMS-273): > 100 µM (inactive) | GI50 (HL-60): > 100 µM (inactive) | GI50 (A498): > 100 µM (inactive) | GI50 (786-0): > 100 µM (inactive) | GI50 (NCI-H23): > 100 µM (inactive) | GI50 (HCC 2998): > 100 µM (inactive) | GI50 (UO-31): > 100 µM (inactive) | GI50 (KM-20L2): > 100 µM (inactive) | GI50 (XF498): > 100 µM (inactive) | GI50 (RXF 631): > 100 µM (inactive) | GI50 (SNB-75): 74.6 µM (inactive) | GI50 (SK-MEL-5): > 100 µM (inactive) | GI50 (SF-539): > 100 µM (inactive) | GI50 (SN12C): > 100 µM (inactive) | GI50 (SW-620): > 100 µM (inactive) | GI50 (A549): > 100 µM (inactive) | GI50 (SNB-19): > 100 µM (inactive) | GI50 (LXFL 529): > 100 µM (inactive) | GI50 (COLO 205): > 100 µM (inactive) | GI50 (MOLT-4): > 100 µM (inactive) | GI50 (SR): > 100 µM (inactive) | GI50 (OVCAR-3): > 100 µM (inactive) | GI50 (SK-OV-3): > 100 µM (inactive) | GI50 (LOX IMVI): > 100 µM (inactive) | GI50 (HCT-116): > 100 µM (inactive)

NCCSSCc1ccccc1CSSCCN
GI50 (NCI-H460): > 100 µM (inactive) | GI50 (U-251): > 100 µM (inactive) | GI50 (IGROV-1): > 100 µM (inactive) | GI50 (OVCAR-8): 66.2 µM (inactive) | GI50 (SF-295): > 100 µM (inactive) | GI50 (HOP-92): > 100 µM (inactive) | GI50 (HT-29): 97.1 µM (inactive) | GI50 (SNB-78): > 100 µM (inactive) | GI50 (OVCAR-5): > 100 µM (inactive) | GI50 (M19-MEL): 29.2 µM (inactive) | GI50 (NCI-H226): > 100 µM (inactive) | GI50 (CAKI-1): > 100 µM (inactive) | GI50 (NCI-H522): 14.1 µM (inactive) | GI50 (SF-268): > 100 µM (inactive) | GI50 (HOP-62): > 100 µM (inactive) | GI50 (OVCAR-4): > 100 µM (inactive) | GI50 (KM12): > 100 µM (inactive) | GI50 (HOP-18): > 100 µM (inactive) | GI50 (DMS-114): > 100 µM (inactive) | GI50 (M14): > 100 µM (inactive) | GI50 (TK-10): > 100 µM (inactive) | GI50 (ACHN): 8.65 µM (inactive) | GI50 (DLD-1): 48.4 µM (inactive) | GI50 (UACC-257): > 100 µM (inactive) | GI50 (Malme-3M): 72.3 µM (inactive) | GI50 (UACC-62): > 100 µM (inactive) | GI50 (RPMI-8226): 67.8 µM (inactive) | GI50 (K562): 16.4 µM (inactive) | GI50 (SK-MEL-28): > 100 µM (inactive) | GI50 (RXF 393): > 100 µM (inactive) | GI50 (DMS-273): 48.9 µM (inactive) | GI50 (HL-60): 8.02 µM (inactive) | GI50 (A498): > 100 µM (inactive) | GI50 (786-0): > 100 µM (inactive) | GI50 (NCI-H23): > 100 µM (inactive) | GI50 (HCC 2998): 50.1 µM (inactive) | GI50 (UO-31): > 100 µM (inactive) | GI50 (KM-20L2): > 100 µM (inactive) | GI50 (XF498): > 100 µM (inactive) | GI50 (RXF 631): > 100 µM (inactive) | GI50 (SNB-75): > 100 µM (inactive) | GI50 (SK-MEL-5): 57.9 µM (inactive) | GI50 (SF-539): > 100 µM (inactive) | GI50 (EKVX): > 100 µM (inactive) | GI50 (SN12C): > 100 µM (inactive) | GI50 (SW-620): 20.4 µM (inactive) | GI50 (A549): > 100 µM (inactive) | GI50 (SNB-19): > 100 µM (inactive) | GI50 (HCT-15): 38.5 µM | GI50 (LXFL 529): 50 µM (inactive) | GI50 (COLO 205): > 100 µM (inactive) | GI50 (MOLT-4): 30.5 µM (inactive) | GI50 (SR): 41.7 µM (inactive) | GI50 (OVCAR-3): > 100 µM (inactive) | GI50 (SK-OV-3): > 100 µM (inactive) | GI50 (LOX IMVI): 14 µM (inactive) | GI50 (HCT-116): > 100 µM (inactive)

— ChEMBL document CHEMBL1201862, “PubChem BioAssay data set” (2004)
